Tested on: glioma model mice
Assay: Therapy of glioma-bearing mice, survival
Conditions: doxorubicin 1 mg/Kg at 9d, 12d and 15d after tumor cell inoculation
Procedure: An animal therapy experiment was conducted by the inventor to glioma-bearing mice (same mice as in Example 4). In the experiment, glioma model mice (same mice as in Example 4) were divided into two groups, 5 mice for each group. And then glioma model mice were treated with doxorubicin (1 mg/Kg) respectively after tumor cell inoculation for 9d, 12d and 15d.

COc1cccc2c1C(=O)c1c(O)c3c(c(O)c1C2=O)C[C@@](O)(C(=O)CO)C[C@@H]3O[C@H]1C[C@H](N)[C@H](O)[C@H](C)O1 [Free-Dox, doxorubicin]
Mean survival time / survival period: 15 days

Source: patent publication US11707527B2, “Nanoscale drug carrier capable of passing through blood-brain barrier” (KUNSHAN XINYUNDA BIOTECH CO., LTD., priority 2017, dated 2023)
